According to PubChem BioAssay (NCI):
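How tested: cells in 96-well plates exposed to compound for 48 hours at five concentrations. Here, GI50 denotes the concentration required for 50% inhibition of growth. At the TGI there is no net growth.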

Key:
Test in all cases: NCI anticancer screen, dose series, 48 h
[1] = tested on: K-562 leukemia
[2] = tested on: UO-31 renal
[3] = tested on: DLD-1 colon
[4] = tested on: COLO 205 colon
[5] = tested on: A549 NSCLC
[6] = tested on: M14 melanoma
[7] = tested on: DMS 273 small cell lung
[8] = tested on: 786-0 renal
[9] = tested on: MOLT-4 leukemia
[10] = tested on: HL-60(TB) leukemia
[11] = tested on: NCI-H23 lung
[12] = tested on: NCI-H522 lung
[13] = tested on: HOP-18 NSCLC
[14] = tested on: SNB-19 CNS
[15] = tested on: HCC-2998 colon
[16] = tested on: HT29 colon
[17] = tested on: SN12C renal
[18] = tested on: KM12 colon
[19] = tested on: CAKI-1 renal
[20] = tested on: OVCAR-8 ovarian
[21] = tested on: OVCAR-3 ovarian
[22] = tested on: MALME-3M melanoma
[23] = tested on: UACC-257 melanoma
[24] = tested on: IGROV1 ovarian
[25] = tested on: ACHN renal
[26] = tested on: SF-539 CNS
[27] = tested on: HOP-62 NSCLC
[28] = tested on: UACC-62 melanoma
[29] = tested on: TK-10 renal
[30] = tested on: M19-MEL melanoma
[31] = tested on: RXF 393 renal
[32] = tested on: A498 renal
[33] = tested on: U251 CNS
[34] = tested on: EKVX NSCLC
[35] = tested on: OVCAR-5 ovarian
[36] = tested on: NCI-H226 lung
[37] = tested on: SW-620 colon
[38] = tested on: CCRF-CEM leukemia
[39] = tested on: NCI-H460 lung
[40] = tested on: LOX IMVI melanoma
[41] = tested on: SK-MEL-5 melanoma
[42] = tested on: SF-295 CNS
[43] = tested on: SR leukemia
[44] = tested on: HCT-116 colon
[45] = tested on: SK-MEL-28 melanoma
[46] = tested on: KM20L2 colon
[47] = tested on: SNB-75 CNS
[48] = tested on: OVCAR-4 ovarian
[49] = tested on: HOP-92 NSCLC
[50] = tested on: LXFL 529 NSCLC
[51] = tested on: SF-268 CNS
[52] = tested on: HCT-15 colon
[53] = tested on: SK-MEL-2 melanoma
[54] = tested on: XF 498 CNS
[55] = tested on: DMS 114 small cell lung
[56] = tested on: RPMI-8226 leukemia
[57] = tested on: SK-OV-3 ovarian
[58] = tested on: SNB-78 CNS
[59] = tested on: RXF-631 renal

In the case of `CC(=O)[O-].[Mn+3].[O-]c1ccccc1C=NCCN=Cc1ccccc1[O-]`, the GI50 [1] is reported as 30.3 µM, the TGI [1] is reported as over 100 µM and the GI50 [2] is reported as over 100 µM. It also gave a TGI [2] of over 100 µM, a GI50 [3] of 56.5 µM and a TGI [3] of over 100 µM. It also gave a GI50 [4] of over 100 µM, a TGI [4] of over 100 µM and a GI50 [5] of over 100 µM. The TGI [5] was over 100 µM, the GI50 [6] was over 100 µM and the TGI [6] was over 100 µM. The GI50 [7] was over 100 µM, the TGI [7] was over 100 µM and the GI50 [8] was over 100 µM. The TGI [8] was over 100 µM, the GI50 [9] was 25.7 µM and the TGI [9] was over 100 µM. It also gave a GI50 [10] of 19.2 µM, a TGI [10] of over 100 µM and a GI50 [11] of 58.9 µM. For the same compound, the TGI [11] was over 100 µM, the GI50 [12] was 16 µM and the TGI [12] was over 100 µM. It also gave a GI50 [13] of over 100 µM, a TGI [13] of over 100 µM and a GI50 [14] of over 100 µM. It also gave a TGI [14] of over 100 µM, a GI50 [15] of over 100 µM and a TGI [15] of over 100 µM. For the same compound, the GI50 [16] was 92.3 µM, the TGI [16] was over 100 µM and the GI50 [17] was over 100 µM. It also gave a TGI [17] of over 100 µM, a GI50 [18] of 84.9 µM and a TGI [18] of over 100 µM. It also gave a GI50 [19] of over 100 µM, a TGI [19] of over 100 µM and a GI50 [20] of over 100 µM. For the same compound, the TGI [20] was over 100 µM, the GI50 [21] was 17 µM and the TGI [21] was over 100 µM. For the same compound, the GI50 [22] was over 100 µM, the TGI [22] was over 100 µM and the GI50 [23] was 51.2 µM. For the same compound, the TGI [23] was over 100 µM, the GI50 [24] was over 100 µM and the TGI [24] was over 100 µM. The GI50 [25] was over 100 µM, the TGI [25] was over 100 µM and the GI50 [26] was over 100 µM. For the same compound, the TGI [26] was over 100 µM, the GI50 [27] was over 100 µM and the TGI [27] was over 100 µM. For the same compound, the GI50 [28] was over 100 µM, the TGI [28] was over 100 µM and the GI50 [29] was over 100 µM. For the same compound, the TGI [29] was over 100 µM, the GI50 [30] was 44.2 µM and the TGI [30] was over 100 µM. The GI50 [31] was over 100 µM, the TGI [31] was over 100 µM and the GI50 [32] was over 100 µM. The TGI [32] was over 100 µM, the GI50 [33] was over 100 µM and the TGI [33] was over 100 µM. For the same compound, the GI50 [34] was over 100 µM, the TGI [34] was over 100 µM and the GI50 [35] was 96.4 µM. For the same compound, the TGI [35] was over 100 µM, the GI50 [36] was over 100 µM and the TGI [36] was over 100 µM. For the same compound, the GI50 [37] was over 100 µM, the TGI [37] was over 100 µM and the GI50 [38] was 25.1 µM. It also gave a TGI [38] of over 100 µM, a GI50 [39] of 44.4 µM and a TGI [39] of over 100 µM. The GI50 [40] was over 100 µM, the TGI [40] was over 100 µM and the GI50 [41] was 94.8 µM. For the same compound, the TGI [41] was over 100 µM, the GI50 [42] was over 100 µM and the TGI [42] was over 100 µM. The GI50 [43] was 70.9 µM, the TGI [43] was over 100 µM and the GI50 [44] was 95.5 µM. For the same compound, the TGI [44] was over 100 µM, the GI50 [45] was over 100 µM and the TGI [45] was over 100 µM. The GI50 [46] was 56.2 µM, the TGI [46] was over 100 µM and the GI50 [47] was over 100 µM. For the same compound, the TGI [47] was over 100 µM, the GI50 [48] was over 100 µM and the TGI [48] was over 100 µM. The GI50 [49] was over 100 µM, the TGI [49] was over 100 µM and the GI50 [50] was 50.7 µM. For the same compound, the TGI [50] was over 100 µM, the GI50 [51] was 11.1 µM and the TGI [51] was over 100 µM. The GI50 [52] was 41.9 µM and the TGI [52] was over 100 µM.

`C#CCN(N=O)C(=O)NC(CCCNC(=O)OCc1ccccc1)C(=O)OCc1ccccc1` (stereo not drawn) gave a TGI [1] of over 100 µM, a TGI [2] of over 100 µM and a TGI [3] of over 100 µM. For the same compound, the TGI [4] was over 100 µM, the TGI [5] was over 100 µM and the TGI [6] was over 100 µM. It also gave a TGI [7] of over 100 µM, a TGI [8] of over 100 µM and a TGI [9] of 65.5 µM. The TGI [10] was 42.9 µM, the TGI [53] was over 100 µM and the TGI [11] was over 100 µM. It also gave a TGI [12] of 27.2 µM, a TGI [14] of over 100 µM and a TGI [15] of over 100 µM. It also gave a TGI [16] of over 100 µM, a TGI [17] of over 100 µM and a TGI [18] of over 100 µM. For the same compound, the TGI [19] was 47.2 µM, the TGI [20] was over 100 µM and the TGI [21] was over 100 µM. The TGI [22] was over 100 µM, the TGI [23] was over 100 µM and the TGI [24] was over 100 µM. For the same compound, the TGI [25] was over 100 µM, the TGI [26] was over 100 µM and the TGI [27] was over 100 µM. For the same compound, the TGI [28] was over 100 µM, the TGI [54] was 60.1 µM and the TGI [29] was over 100 µM. For the same compound, the TGI [30] was over 100 µM, the TGI [31] was 84.4 µM and the TGI [32] was over 100 µM. The TGI [55] was over 100 µM, the TGI [33] was over 100 µM and the TGI [56] was over 100 µM. It also gave a TGI [34] of over 100 µM, a TGI [35] of over 100 µM and a TGI [36] of over 100 µM. It also gave a TGI [37] of over 100 µM, a TGI [57] of over 100 µM and a TGI [38] of 52 µM. The TGI [39] was over 100 µM, the TGI [40] was over 100 µM and the TGI [41] was over 100 µM. It also gave a TGI [42] of over 100 µM, a TGI [43] of 84.2 µM and a TGI [44] of over 100 µM. It also gave a TGI [45] of over 100 µM, a TGI [58] of over 100 µM and a TGI [46] of over 100 µM. For the same compound, the TGI [47] was over 100 µM, the TGI [48] was over 100 µM and the TGI [49] was 96.3 µM. For the same compound, the TGI [50] was over 100 µM, the TGI [51] was over 100 µM and the TGI [52] was over 100 µM.

`Cc1ccccc1C(=O)Oc1ccc(O)cc1` gave a TGI [1] of over 100 µM, a TGI [2] of over 100 µM and a TGI [3] of over 100 µM. The TGI [4] was over 100 µM, the TGI [5] was over 100 µM and the TGI [6] was over 100 µM. For the same compound, the TGI [7] was over 100 µM, the TGI [8] was over 100 µM and the TGI [9] was over 100 µM. The TGI [10] was over 100 µM, the TGI [53] was over 100 µM and the TGI [11] was over 100 µM. The TGI [12] was over 100 µM, the TGI [13] was over 100 µM and the TGI [14] was over 100 µM. The TGI [15] was over 100 µM, the TGI [16] was over 100 µM and the TGI [17] was over 100 µM. For the same compound, the TGI [18] was over 100 µM, the TGI [19] was over 100 µM and the TGI [20] was over 100 µM. For the same compound, the TGI [21] was over 100 µM, the TGI [22] was over 100 µM and the TGI [23] was over 100 µM. For the same compound, the TGI [24] was over 100 µM, the TGI [25] was over 100 µM and the TGI [26] was over 100 µM. The TGI [27] was over 100 µM, the TGI [28] was over 100 µM and the TGI [29] was over 100 µM. For the same compound, the TGI [30] was over 100 µM, the TGI [31] was over 100 µM and the TGI [32] was over 100 µM. It also gave a TGI [59] of over 100 µM, a TGI [33] of over 100 µM and a TGI [56] of over 100 µM. The TGI [34] was over 100 µM, the TGI [35] was over 100 µM and the TGI [36] was over 100 µM. For the same compound, the TGI [37] was over 100 µM, the TGI [57] was over 100 µM and the TGI [38] was over 100 µM. It also gave a TGI [39] of over 100 µM, a TGI [41] of over 100 µM and a TGI [42] of over 100 µM. For the same compound, the TGI [44] was over 100 µM, the TGI [58] was over 100 µM and the TGI [46] was over 100 µM. For the same compound, the TGI [47] was over 100 µM, the TGI [48] was over 100 µM and the TGI [51] was over 100 µM. The TGI [52] was over 100 µM.
